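Tested at 5 concentrations; 48 h exposure; 96-well plates; endpoints linearly interpolated, else capped at highest concentration. TGI is the concentration that stops growth completely.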
System: SN12K1 renal
Test: NCI anticancer screen, dose series, 48 h

SMILES: O=C1C(=O)c2ccccc2C(O)=C1CC=C(Cl)Cl
- TGI: 113 µM
